# Key:
# [1] = target: T1, hCB2 Receptor (HEK293T.CNR2) (Homo sapiens, UniProt P34972); assay: cAMP assay, HEK293T.CNR2; type: cell-based; conditions: max. tested 10μM
# T1 construct: expressed in transfected cells; host or cells: HEK293T
# [2] = target: T2, hCB2 Receptor (CHO-K1.CNR2) (Homo sapiens, UniProt P34972); assay: GTPγS Binding assay, CHO-K1.CNR2; type: biochemical; conditions: max. tested 10μM
# T2 construct: expressed in transfected cells; host or cells: CHO-K1
# [3] = target: T3, fatty acid amide hydrolase (Homo sapiens, UniProt O00519); assay: Receptor binding profile of VSN16R; conditions: 10µM VSN16R
# T3 construct: purchased Cerep; Chantest; DiscoveRx; Multispan; MDS Pharma Services
# T3 sequence (O00519 whole entry): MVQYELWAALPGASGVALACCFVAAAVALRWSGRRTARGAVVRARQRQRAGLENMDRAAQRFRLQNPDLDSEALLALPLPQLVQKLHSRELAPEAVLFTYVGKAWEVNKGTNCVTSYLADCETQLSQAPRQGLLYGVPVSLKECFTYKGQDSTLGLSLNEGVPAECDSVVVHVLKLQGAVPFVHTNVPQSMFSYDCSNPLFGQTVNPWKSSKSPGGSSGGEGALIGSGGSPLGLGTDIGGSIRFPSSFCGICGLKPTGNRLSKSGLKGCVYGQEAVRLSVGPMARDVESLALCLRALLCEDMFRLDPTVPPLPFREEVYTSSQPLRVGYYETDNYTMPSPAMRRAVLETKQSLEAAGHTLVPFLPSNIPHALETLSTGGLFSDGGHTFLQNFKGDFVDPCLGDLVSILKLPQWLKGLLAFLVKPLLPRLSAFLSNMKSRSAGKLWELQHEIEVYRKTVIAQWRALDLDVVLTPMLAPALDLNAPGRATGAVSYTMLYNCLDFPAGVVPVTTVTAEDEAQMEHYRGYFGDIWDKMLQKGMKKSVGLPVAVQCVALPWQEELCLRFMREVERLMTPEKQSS
# [4] = system: Salmonella typhimurium and Escherichia coli strains; assay: Standard Ames test (summary); type: cell-based
# Description: Strain of Organism Treatment Dose Revertants per plate
# First Mutation without Metabolic Stimulation
# Second Mutation without Metabolic Stimulation
# VSN16R was incubated at various concentrations with either TA1535, TA1537, TA98 and TA100 strains of Salmonella typhimurium, which carry mutations in genes involved in histidine synthesis, and WP2uvvA Escherichia coli. The bacteria are spread on agar plates with limiting histidine content and incubated for 48 h. The number of histidine gene negative to positive revertants was assessed in two experiments. The results represent the mean ± SD. n=3/group. This was performed by Charles
# CYP450 3A5 = CYP450 3A5 (Homo sapiens, UniProt P20815)
# Sequence of CYP450 3A5 (P20815 whole entry): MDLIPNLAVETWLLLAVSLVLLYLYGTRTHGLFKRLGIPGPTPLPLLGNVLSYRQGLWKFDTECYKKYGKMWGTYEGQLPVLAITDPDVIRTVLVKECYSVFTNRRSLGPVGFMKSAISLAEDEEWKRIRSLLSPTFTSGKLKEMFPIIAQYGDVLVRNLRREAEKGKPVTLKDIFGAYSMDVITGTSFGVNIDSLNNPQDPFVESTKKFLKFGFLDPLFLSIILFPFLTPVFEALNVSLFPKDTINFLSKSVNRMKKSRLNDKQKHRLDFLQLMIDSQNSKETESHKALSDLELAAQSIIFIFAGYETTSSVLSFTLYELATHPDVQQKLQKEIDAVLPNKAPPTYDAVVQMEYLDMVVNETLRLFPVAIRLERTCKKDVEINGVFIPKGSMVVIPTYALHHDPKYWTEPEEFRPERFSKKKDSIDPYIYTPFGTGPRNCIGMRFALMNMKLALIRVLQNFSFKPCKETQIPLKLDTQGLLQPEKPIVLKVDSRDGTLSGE
# Description: IC50 Inhibition of substrate binding
# (§1) Inhibition of binding of either 3-cyano-7-ethoxycoumarin, dibenzylfluorescein or 7-benzyoxy-4-
# (§2) (trifluoromethyl) coumarin in human enzyme transfected BTI NN-5B1-4 cells or Sf9 insect cells or
# (§3) inhibition of dextromethorphan substrate to CYP450 2D6 in liver microsomes.
# [5] = system: Ca2+ channel (L verapamil site); assay: Receptor binding profile of VSN16R; set-up: species or system human; conditions: 10µM VSN16R
# GABAB = assay: Receptor binding profile of VSN16R; set-up: species or system human; conditions: 10µM VSN16R
# GPR35 = target: T4, GPR35 (Homo sapiens, UniProt Q9HC97); assay: Receptor binding profile of VSN16R; conditions: 10µM VSN16R
# T4 construct: purchased Cerep; Chantest; DiscoveRx; Multispan; MDS Pharma Services
# T4 sequence (Q9HC97 whole entry): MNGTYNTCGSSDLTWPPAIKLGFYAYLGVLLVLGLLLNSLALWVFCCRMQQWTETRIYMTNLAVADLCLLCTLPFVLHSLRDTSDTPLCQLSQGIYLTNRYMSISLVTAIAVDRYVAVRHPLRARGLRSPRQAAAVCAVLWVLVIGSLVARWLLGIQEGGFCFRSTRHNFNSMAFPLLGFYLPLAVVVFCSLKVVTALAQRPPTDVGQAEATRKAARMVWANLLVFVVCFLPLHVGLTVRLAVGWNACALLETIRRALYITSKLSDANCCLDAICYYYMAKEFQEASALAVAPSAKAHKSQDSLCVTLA
# monoglycerol lipase = target: T5, monoglycerol lipase (Homo sapiens, UniProt Q99685); assay: Receptor binding profile of VSN16R; conditions: 10µM VSN16R
# T5 construct: purchased Cerep; Chantest; DiscoveRx; Multispan; MDS Pharma Services
# T5 sequence (Q99685 whole entry): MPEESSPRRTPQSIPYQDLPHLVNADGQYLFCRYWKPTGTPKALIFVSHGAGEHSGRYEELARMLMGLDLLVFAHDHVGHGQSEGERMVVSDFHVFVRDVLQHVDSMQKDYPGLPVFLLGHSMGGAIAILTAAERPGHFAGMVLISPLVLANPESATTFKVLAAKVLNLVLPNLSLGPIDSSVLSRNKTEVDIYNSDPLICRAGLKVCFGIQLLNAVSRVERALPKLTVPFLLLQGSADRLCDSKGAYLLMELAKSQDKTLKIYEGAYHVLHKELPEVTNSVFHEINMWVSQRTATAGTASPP
# SK+Ca channel (KCNN2) = target: T6, SK+Ca channel (KCNN2) (Homo sapiens, UniProt Q9H2S1); assay: Receptor binding profile of VSN16R
# T6 construct: purchased Cerep; Chantest; DiscoveRx; Multispan; MDS Pharma Services
# β2 = assay: Receptor binding profile of VSN16R; set-up: species or system human; conditions: 10µM VSN16R
# Y1 = target: T7, Y1 (Homo sapiens, UniProt P25929); assay: Receptor binding profile of VSN16R; conditions: 10µM VSN16R
# T7 construct: purchased Cerep; Chantest; DiscoveRx; Multispan; MDS Pharma Services
# T7 sequence (P25929 whole entry): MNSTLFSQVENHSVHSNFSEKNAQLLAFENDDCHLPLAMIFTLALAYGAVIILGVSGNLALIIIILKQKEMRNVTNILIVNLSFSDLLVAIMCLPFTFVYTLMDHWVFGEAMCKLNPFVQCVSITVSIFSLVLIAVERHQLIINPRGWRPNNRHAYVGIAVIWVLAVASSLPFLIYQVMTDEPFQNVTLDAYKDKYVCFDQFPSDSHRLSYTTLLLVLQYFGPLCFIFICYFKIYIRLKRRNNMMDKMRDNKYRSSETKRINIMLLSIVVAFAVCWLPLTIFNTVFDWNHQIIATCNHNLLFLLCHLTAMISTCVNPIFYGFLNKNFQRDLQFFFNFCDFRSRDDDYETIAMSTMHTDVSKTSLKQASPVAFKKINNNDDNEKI
# GlyR = assay: Receptor binding profile of VSN16R; set-up: species or system human; conditions: 10µM VSN16R
# EDG5 = target: T8, EDG5 (Homo sapiens, UniProt O95136); assay: Receptor binding profile of VSN16R; conditions: 10µM VSN16R
# T8 construct: purchased Cerep; Chantest; DiscoveRx; Multispan; MDS Pharma Services
# T8 sequence (O95136 whole entry): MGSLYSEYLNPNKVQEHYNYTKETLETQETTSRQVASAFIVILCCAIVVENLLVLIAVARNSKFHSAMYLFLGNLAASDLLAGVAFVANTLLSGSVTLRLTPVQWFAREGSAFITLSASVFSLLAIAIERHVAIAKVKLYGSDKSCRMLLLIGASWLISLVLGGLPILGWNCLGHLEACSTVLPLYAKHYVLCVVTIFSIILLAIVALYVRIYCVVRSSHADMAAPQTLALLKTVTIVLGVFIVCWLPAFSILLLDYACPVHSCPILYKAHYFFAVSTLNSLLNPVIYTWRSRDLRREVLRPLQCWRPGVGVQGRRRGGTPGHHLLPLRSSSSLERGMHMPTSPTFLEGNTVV
# CYP450 1A2 = CYP450 1A2 (Homo sapiens, UniProt P05177); assay: CYP450 inhibition of substrate binding
# Sequence of CYP450 1A2 (P05177 whole entry): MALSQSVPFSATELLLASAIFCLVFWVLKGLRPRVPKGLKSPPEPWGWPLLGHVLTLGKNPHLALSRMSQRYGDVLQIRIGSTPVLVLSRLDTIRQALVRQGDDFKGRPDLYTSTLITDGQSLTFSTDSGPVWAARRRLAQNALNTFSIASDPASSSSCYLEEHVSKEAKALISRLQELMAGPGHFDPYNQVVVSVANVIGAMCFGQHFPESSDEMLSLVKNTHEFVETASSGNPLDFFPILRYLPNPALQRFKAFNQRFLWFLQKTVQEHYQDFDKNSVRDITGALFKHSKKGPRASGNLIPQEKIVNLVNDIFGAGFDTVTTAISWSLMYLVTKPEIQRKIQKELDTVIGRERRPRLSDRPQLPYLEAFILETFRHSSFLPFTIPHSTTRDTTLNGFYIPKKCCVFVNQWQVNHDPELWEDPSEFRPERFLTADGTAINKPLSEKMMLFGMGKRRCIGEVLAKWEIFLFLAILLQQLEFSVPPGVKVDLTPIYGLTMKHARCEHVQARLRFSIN
# Description: IC50 Inhibition of substrate binding
# as §1, §2, §3
# GABA (non-selective) = assay: Receptor binding profile of VSN16R; set-up: species or system human; conditions: 10µM VSN16R
# dogs = assay: 28 day toxicology in dogs (50, 100, 200mg/kg p.o.); type: in vivo, dog
# Description: Twenty‐eight day toxicology in rats and dogs for Investigational New Drug filing was performed by Charles Rivers (UK). Reproductive toxicology in rabbits was performed by Charles Rivers (Canada). Pharmacokinetic and/or toxicological doses ranged from 5 to 1000 mg·kg^−1 p.o. in Sprague Dawley male and female rats (n = 6‐26 per group), 50–200 mg·kg^−1 p.o. in male and female Beagle dogs (n = 6 per group) and 100–750 mg·kg^−1 p.o. in female New Zealand white rabbits (n = 9 per group). Results are expressed as mean ± SD.
# Tissue Analysed Result of Tissue Analysis in Rats Result of Tissue Analysis in Dogs Artery, Aorta Negative Negative
# Bone Marrow femur Negative Negative
# Bone Marrow sternum Negative Negative
# Bone, Sternum Negative Negative
# Epididymus Negative Negative
# Adrenal Gland Negative Negative
# Mammary Grand Negative Negative
# Parathyroid Gland Negative Negative
# Pituitary Gland Negative Negative
# Prostate Gland Negative Negative
# Salivary Gland Negative Negative
# Seminal Vesicle Gland Negative Negative
# Gut associated lymphoid Negative Negative
# Large Intestine caecum Negative Negative
# Large Intestine colon Negative Negative
# Large Intestine rectum Negative Negative
# Mandibular Lymph Node Negative Negative
# Mesenteric Lymph Node Negative Negative
# Skeletal Muscle Negative Negative
# Nasal Cavity Negative Negative
# Sciatic Nerve Negative Negative
# Oesophagus Negative Negative
# Pancreas Negative Negative […]
# ETA = target: T9, ETA (Homo sapiens, UniProt P25101); assay: Receptor binding profile of VSN16R; conditions: 10µM VSN16R
# T9 construct: purchased Cerep; Chantest; DiscoveRx; Multispan; MDS Pharma Services
# T9 sequence (P25101 21-427): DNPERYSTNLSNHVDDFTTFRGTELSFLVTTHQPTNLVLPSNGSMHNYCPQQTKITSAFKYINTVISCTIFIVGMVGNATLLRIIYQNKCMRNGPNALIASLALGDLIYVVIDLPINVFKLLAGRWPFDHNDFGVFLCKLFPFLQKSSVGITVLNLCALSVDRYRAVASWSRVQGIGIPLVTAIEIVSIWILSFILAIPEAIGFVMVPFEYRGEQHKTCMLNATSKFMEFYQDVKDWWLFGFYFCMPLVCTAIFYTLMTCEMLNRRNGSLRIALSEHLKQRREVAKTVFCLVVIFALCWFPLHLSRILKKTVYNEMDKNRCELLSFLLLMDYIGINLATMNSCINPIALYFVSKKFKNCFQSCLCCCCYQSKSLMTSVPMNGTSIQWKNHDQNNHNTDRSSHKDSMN
# T2 sequence (P34972 whole entry): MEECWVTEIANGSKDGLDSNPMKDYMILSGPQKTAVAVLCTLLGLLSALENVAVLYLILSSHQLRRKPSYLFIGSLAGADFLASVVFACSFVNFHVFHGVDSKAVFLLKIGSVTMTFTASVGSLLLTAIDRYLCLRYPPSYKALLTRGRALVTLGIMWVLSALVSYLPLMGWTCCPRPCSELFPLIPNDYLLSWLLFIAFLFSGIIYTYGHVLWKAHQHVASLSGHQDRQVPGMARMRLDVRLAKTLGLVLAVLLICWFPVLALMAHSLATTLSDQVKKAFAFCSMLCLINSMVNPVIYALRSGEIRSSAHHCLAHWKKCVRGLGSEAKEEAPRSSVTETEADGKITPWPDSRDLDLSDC
# T1 sequence (P34972 whole entry): as above
smiles,measurement,setting,value
C[C@H](CO)NC(=O)c1cccc(/C=C\CCCC(=O)N(C)C)c1 [VSN16R],Activity of VSN16R (Max. Tested),[1],No Activity
same,Activity of VSN16R (Max. Tested),[2],No Activity
same,Activity,[3],Negligible Activity
same,Mutagenesis in a standard Ames test,[4],no evidence of mutagenesis
same,IC50,CYP450 3A5,> 10 µM
same,Activity,[5],Negligible Activity
same,Activity,GABAB,Negligible Activity
same,Activity,GPR35,Negligible Activity
same,Activity,monoglycerol lipase,Negligible Activity
same,Activity,SK+Ca channel (KCNN2); 10µM VSN16R,Negligible Activity
same,Block of apamin binding to KCa2.2 channels,SK+Ca channel (KCNN2); transfected cells,failed to block the binding of apamin
same,Activity,β2,Negligible Activity
same,Activity,Y1,Negligible Activity
same,Activity,GlyR,Negligible Activity
same,Activity,EDG5,Negligible Activity
same,IC50,CYP450 1A2,> 10 µM
same,Activity,GABA (non-selective),Negligible Activity
same,Result of Tissue Analysis in Dogs,"dogs; dog, in vivo",Negative
same,NOEL,"dogs; p.o., dogs",100 mg/kg
same,Activity,ETA,Negligible Activity

# Source: paper PMC5522996, “Big conductance calcium‐activated potassium channel openers control spasticity without sedation” (British Journal of Pharmacology, 2017)
